Results published in patent publication US20240352021A1 (DANA-FARBER CANCER INSTITUTE, INC., priority 2021, published 2024).

What was measured:
[1] = target: EGFR L858R (Homo sapiens, UniProt P00533, L858R); assay: EGFR biochemical assay (headed HTRF-based; method describes Z'-LYTE), L858R; conditions: Table 4
Method: (§1) To measure the IC50 values of compounds herein against EGFR, a Z′-LYTE assay (ThermoFisher) was used. Briefly, 2.5 μL of different concentrations of the compounds in 4% DMSO were added to 5 μL kinase/peptide mixture in each well of a 384-well plate (Corning Cat. #3676). 2.5 μL of 4× ATP solution (4× ATP, 50 mM HEPES, pH 7.5, 0.01% BRIJ-35, 10 mM MgCl2, 1 mM EGTA) were added to each well. The plate was shaken for 30 seconds, and then incubated at room temperature for 60 minutes. 5 μL of a 1:100000 dilution of Development Reagent A was added to each well. The plate was then incubated for 60 mins at room temperature. 5 μL of the stop reagent was then added. The plate was subsequently read on a fluorescence plate reader, and the emissions ratio was calculated to determine the ratio of Ser/Thr 07 phosphorylated by the reaction. Emissions Ratio═Coumarin Emission (443 nm)/Flourescein Emission (520 nm).
(§2) HTRF-based EGFR assay data are provided below in Table 4.

[2] = target: EGFR L858R/C797S Ba/F3 cells (Homo sapiens, UniProt P00533, C797S/L858R, cells depend on it); assay: Ba/F3 cell proliferation (Cell Titer Glo), EGFR L858R/C797S; type: cell-based, murine; conditions: 72 hours, Table 6
EGFR L858R/C797S Ba/F3 cells, sequence (P00533 whole entry C797S/L858R): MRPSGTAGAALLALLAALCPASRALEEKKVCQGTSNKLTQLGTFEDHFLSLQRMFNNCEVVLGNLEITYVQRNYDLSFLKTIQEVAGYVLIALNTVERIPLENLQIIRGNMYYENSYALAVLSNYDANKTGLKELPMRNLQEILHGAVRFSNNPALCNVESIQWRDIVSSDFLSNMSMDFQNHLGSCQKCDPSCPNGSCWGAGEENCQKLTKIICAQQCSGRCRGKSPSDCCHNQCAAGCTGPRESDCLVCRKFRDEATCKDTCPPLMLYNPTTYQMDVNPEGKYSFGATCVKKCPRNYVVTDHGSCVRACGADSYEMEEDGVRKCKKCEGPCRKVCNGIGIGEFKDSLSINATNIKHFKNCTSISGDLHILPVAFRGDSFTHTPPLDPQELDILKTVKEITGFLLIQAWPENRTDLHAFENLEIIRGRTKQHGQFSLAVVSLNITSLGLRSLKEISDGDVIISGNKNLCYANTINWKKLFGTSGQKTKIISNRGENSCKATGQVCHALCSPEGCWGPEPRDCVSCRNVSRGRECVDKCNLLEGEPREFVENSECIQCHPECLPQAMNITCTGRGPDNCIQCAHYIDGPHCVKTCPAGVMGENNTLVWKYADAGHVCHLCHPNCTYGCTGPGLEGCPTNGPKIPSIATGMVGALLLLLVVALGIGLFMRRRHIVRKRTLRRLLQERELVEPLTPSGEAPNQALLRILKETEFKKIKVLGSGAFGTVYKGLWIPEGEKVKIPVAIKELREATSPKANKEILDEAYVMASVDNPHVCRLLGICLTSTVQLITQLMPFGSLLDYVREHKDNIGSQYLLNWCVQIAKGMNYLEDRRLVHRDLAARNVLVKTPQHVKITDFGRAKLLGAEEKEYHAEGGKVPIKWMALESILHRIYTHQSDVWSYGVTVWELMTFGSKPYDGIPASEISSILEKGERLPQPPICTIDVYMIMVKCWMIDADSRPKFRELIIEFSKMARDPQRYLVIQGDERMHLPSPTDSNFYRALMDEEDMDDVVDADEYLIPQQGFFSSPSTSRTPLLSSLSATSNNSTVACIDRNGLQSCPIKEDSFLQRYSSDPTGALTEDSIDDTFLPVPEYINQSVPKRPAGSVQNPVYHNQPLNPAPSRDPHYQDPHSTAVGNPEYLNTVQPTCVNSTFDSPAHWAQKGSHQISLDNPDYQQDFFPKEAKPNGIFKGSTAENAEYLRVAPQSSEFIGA
How it was run: (§3)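 Retrovirally transduced, puromycin-selected Ba/F3 cells expressing EGFR L858R or L858R/C797S, grown in RPMI + 10% FBS, exposed to compounds for 72 h in triplicate. Viability by Cell Titer Glo ATP luminescence; IC50 from sigmoidal dose-response fit, binned A <0.1, B 0.1–0.5, C 0.5–2.5, D ≥2.5 μM.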

[3] = target: EGFR L858R/T790M (Homo sapiens, UniProt P00533, L858R/T790M); assay: EGFR biochemical assay (headed HTRF-based; method describes Z'-LYTE), L858R/T790M; conditions: Table 4
EGFR L858R/T790M, sequence (P00533 25-1210 T790M/L858R): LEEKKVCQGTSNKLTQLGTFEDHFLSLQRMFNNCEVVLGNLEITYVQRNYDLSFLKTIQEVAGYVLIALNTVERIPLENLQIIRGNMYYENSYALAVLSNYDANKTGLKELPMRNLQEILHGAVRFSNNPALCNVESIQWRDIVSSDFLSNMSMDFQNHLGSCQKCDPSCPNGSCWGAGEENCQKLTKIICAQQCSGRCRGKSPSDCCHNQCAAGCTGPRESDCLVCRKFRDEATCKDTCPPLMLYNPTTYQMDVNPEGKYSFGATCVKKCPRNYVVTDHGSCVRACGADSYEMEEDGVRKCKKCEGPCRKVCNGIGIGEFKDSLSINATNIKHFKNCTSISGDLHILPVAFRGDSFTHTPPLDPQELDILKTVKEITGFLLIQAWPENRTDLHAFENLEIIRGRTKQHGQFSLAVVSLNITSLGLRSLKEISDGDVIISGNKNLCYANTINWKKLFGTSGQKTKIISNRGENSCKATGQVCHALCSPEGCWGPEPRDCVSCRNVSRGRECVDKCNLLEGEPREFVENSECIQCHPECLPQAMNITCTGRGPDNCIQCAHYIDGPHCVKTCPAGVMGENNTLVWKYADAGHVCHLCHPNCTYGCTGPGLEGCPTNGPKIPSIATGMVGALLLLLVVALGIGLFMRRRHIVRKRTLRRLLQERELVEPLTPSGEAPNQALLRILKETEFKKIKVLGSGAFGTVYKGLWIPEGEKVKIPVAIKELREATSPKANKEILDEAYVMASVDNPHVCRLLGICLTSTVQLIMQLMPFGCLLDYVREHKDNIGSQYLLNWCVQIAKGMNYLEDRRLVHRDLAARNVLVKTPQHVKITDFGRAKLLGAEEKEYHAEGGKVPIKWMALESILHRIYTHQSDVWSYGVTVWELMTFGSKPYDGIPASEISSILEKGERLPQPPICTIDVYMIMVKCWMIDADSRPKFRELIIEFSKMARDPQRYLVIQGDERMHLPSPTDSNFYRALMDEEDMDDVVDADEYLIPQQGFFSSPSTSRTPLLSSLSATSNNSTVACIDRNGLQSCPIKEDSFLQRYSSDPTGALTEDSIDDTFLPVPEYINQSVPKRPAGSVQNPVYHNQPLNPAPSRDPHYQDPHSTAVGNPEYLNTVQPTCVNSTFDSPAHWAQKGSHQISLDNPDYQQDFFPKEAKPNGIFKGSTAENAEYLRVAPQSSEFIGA
Method: as §1, §2

[4] = target: EGFR mutant L858R Ba/F3 cells (Homo sapiens, UniProt P00533, L858R, cells depend on it); assay: Ba/F3 cell proliferation (Cell Titer Glo), EGFR L858R; type: cell-based, murine; conditions: 72 hours, Table 6, read-out: L858R BaF3
EGFR mutant L858R Ba/F3 cells, sequence (P00533 whole entry L858R): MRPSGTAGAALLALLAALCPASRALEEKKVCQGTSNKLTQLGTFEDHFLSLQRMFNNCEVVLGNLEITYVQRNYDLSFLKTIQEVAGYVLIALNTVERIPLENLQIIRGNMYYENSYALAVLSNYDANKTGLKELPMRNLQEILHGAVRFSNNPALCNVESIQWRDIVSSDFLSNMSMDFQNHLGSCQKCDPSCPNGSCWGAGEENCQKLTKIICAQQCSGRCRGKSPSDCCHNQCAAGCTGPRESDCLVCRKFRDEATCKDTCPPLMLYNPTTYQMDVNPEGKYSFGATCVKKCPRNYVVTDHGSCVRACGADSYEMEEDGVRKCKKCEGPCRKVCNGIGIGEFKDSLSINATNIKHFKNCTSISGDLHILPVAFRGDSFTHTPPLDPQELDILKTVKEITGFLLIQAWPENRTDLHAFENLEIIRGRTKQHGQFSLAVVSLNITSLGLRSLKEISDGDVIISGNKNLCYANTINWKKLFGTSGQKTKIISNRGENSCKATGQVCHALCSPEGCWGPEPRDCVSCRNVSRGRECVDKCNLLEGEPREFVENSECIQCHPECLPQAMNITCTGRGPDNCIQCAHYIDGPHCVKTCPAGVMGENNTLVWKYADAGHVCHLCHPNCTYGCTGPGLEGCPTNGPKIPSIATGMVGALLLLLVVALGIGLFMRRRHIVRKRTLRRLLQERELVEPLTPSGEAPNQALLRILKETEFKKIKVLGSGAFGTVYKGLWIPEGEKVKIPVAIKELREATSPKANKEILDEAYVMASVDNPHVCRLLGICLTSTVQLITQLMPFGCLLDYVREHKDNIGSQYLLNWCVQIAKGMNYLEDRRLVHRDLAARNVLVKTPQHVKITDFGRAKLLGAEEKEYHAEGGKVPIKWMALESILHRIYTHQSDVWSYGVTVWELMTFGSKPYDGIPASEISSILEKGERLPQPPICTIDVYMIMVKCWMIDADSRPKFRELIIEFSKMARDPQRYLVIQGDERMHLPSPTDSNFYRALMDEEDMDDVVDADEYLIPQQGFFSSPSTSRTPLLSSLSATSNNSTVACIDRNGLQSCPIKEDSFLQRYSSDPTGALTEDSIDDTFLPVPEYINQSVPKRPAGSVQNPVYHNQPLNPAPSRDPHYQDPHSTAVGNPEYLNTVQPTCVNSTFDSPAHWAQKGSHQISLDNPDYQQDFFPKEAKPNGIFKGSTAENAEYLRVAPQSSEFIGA
How it was run: as §3

EGFR L858R, sequence (P00533 25-1210 L858R): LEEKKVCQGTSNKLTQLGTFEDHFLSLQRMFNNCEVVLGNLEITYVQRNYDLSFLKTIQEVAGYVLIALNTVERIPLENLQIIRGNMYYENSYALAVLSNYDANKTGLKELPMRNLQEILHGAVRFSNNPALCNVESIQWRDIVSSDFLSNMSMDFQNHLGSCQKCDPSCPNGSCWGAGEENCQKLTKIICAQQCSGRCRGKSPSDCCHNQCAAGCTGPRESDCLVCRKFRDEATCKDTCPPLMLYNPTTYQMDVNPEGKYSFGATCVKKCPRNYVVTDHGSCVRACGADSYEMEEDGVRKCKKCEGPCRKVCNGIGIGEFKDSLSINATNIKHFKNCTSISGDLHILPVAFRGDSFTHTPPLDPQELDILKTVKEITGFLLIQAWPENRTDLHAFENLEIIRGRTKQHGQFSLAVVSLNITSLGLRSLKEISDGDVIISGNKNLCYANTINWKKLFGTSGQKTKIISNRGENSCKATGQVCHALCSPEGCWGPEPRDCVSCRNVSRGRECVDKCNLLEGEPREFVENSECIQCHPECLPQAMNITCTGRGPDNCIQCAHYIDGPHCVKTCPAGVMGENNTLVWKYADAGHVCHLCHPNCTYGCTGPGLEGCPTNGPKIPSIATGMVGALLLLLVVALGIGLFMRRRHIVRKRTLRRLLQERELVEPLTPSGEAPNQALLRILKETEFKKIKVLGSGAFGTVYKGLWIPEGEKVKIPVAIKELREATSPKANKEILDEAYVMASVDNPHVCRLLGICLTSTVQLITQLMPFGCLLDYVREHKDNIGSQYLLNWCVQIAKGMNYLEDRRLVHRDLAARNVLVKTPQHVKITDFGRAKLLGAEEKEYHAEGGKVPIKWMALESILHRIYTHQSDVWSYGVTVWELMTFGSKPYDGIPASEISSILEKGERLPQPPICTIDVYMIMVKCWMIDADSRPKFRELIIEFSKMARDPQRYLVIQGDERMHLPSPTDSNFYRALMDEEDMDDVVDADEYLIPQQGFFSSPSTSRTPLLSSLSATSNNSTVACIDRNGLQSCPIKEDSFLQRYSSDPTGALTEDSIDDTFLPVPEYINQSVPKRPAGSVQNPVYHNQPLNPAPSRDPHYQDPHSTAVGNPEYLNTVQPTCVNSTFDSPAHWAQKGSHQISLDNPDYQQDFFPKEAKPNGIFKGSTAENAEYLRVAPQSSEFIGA

SMILES | IC50 [1] | GI50 [2] | IC50 [3] | GI50 [4]
C=CC(=O)N1CCC(N2Cc3cnc(Nc4ccc(N5CCN(C)CC5)cc4)nc3N(CC(F)F)C2=O)c2cccc(OC)c21 (stereo not shown) [Compound 134, 3-(1-acryloyl-8-methoxy-1,2,3,4-tetrahydroquinolin-4-yl)-1-(2,2-difluoroethyl)-7-((4-(4-methylpiperazin-1-yl)phenyl)amino)-3,4-dihydropyrimido[4,5-d]pyrimidin-2(1H)-one] | 38.9 nM | 100 to 500 nM | > 1000 nM | < 100 nM
C=CC(=O)N1CCC(N2Cc3cnc(Nc4ccc(N5CCN(C)CC5)cc4)nc3N(C)C2=O)c2cccc(C#N)c21 (stereo not shown) [Compound 150, 4-[1-methyl-7-[4-(4-methylpiperazin-1-yl)anilino]-2-oxo-4H-pyrimido[4,5-d]pyrimidin-S-yl]-1-prop-2-enoyl-3,4-dihydro-2H-quinoline-8-carbonitrile] | > 1000 nM | 500 to 2500 nM | > 1000 nM | 500 to 2500 nM
C=CC(=O)N1CC[C@@H](N2Cc3cnc(Nc4cnn(CCO)c4)nc3N(C)C2=O)c2cccc(OC)c21 (single isomer, unassigned) [Compound 117] | > 100 nM | ≥ 2500 nM | > 100 nM | ≥ 2500 nM
C=CC(=O)N1CCC(N2Cc3cnc(Nc4ccc(N5CCN(C)CC5)cc4)nc3N(C)C2=O)c2cccc(Cl)c21 (stereo not shown) [Compound 147, 3-(8-chloro-1-prop-2-enoyl-3,4-dihydro-2H-quinolin-4-yl)-1-methyl-7-[4-(4-methylpiperazin-1-yl)anilino]-4H-pyrimido[4,5-d]pyrimidin-2-one] | > 1000 nM | ≥ 2500 nM | > 1000 nM | 500 to 2500 nM
C=CC(=O)N1CC[C@H](N2Cc3cnc(Nc4cnn(CCO)c4)nc3N(C)C2=O)[C@@H]2CCC[C@@H]21 [Compound 126, 7-[[1-(2-hydroxyethyl)pyrazol-4-yl]amino]-1-methyl-S-(1-prop-2-enoyl-2,3,4,4a, 5,6,7,7a-octahydrocyclopenta[b]pyridin-4-yl)-4H-pyrimido[4,5-d]pyrimidin-2-one] | > 100 nM | ≥ 2500 nM | > 100 nM | ≥ 2500 nM
C=CC(=O)N1CCC2(N3Cc4cnc(Nc5ccc(OCCN6CCCC6)cc5)nc4N(C)C3=O)CC2C1 (stereo not drawn) [Compound 121, 1-methyl-S-(3-prop-2-enoyl-S-azabicyclo[4.1.0]heptan-6-yl)-7-[4-(2-pyrrolidin-1-ylethoxy)anilino]-4H-pyrimido[4,5-d]pyrimidin-2-one] | > 100 nM | ≥ 2500 nM | > 100 nM | ≥ 2500 nM
C=CC(=O)N1CCC(N2Cc3cnc(Nc4ccc(N5CCN(C)CC5)cc4)nc3N(C)C2=O)c2cnn(C)c21 (stereo not drawn) [Compound 132, 1-methyl-7-[4-(4-methylpiperazin-1-yl)anilino]-S-(1-methyl-7-prop-2-enoyl-5,6-dihydro-4H-pyrazolo[3,4-b]pyridin-4-yl)-4H-pyrimido[4,5-d]pyrimidin-2-one] | > 1000 nM | 100 to 500 nM | > 1000 nM | 100 to 500 nM
C=CC(=O)N1CC[C@H](N2Cc3cnc(Nc4ccc(N5CCN(C)CC5)cc4)nc3N(C)C2=O)[C@H](N)C1 (relative stereo) [Compound 148, rel-(3R,4S)—S-(3-amino-1-prop-2-enoyl-4-piperidyl)-1-methyl-7-[4-(4-methylpiperazin-1-yl)anilino]-4H-pyrimido[4,5-d]pyrimidin-2-one] | > 1000 nM | ≥ 2500 nM | > 1000 nM | ≥ 2500 nM
C=CC(=O)N(C)c1ccccc1CN1Cc2cnc(Nc3ccc(N4CCN(C)CC4)cc3)nc2N(C)C1=O [Compound 139, N-methyl-N-[2-[[1-methyl-7-[4-(4-methylpiperazin-1-yl)anilino]-2-oxo-4H-pyrimido[4,5-d]pyrimidin-S-yl]methyl]phenyl]prop-2-enamide] | > 1000 nM | 500 to 2500 nM | > 1000 nM | 100 to 500 nM
[2H]C1(N2Cc3cnc(Nc4cnn(CCO)c4)nc3N(C)C2=O)CCN(C(=O)C=C)c2ccccc21 (stereo not shown) [Compound 127] | 1.2 nM | < 100 nM | > 700 nM | < 100 nM
C=C(F)C(=O)N1CC[C@H](N2Cc3cnc(Nc4cnn(CCO)c4)nc3N(C)C2=O)c2cccc(OC)c21 (single isomer, unassigned) [Compound 120] | > 100 nM | ≥ 2500 nM | > 100 nM | ≥ 2500 nM
C=CC(=O)N1CC[C@H](N2Cc3cnc(Nc4ccc(CS(C)(=O)=O)cc4)nc3N(C)C2=O)c2cccc(C)c21 [Compound 144] | 1.57 nM | < 100 nM | > 1000 nM | < 100 nM
C=CC(=O)N1CCC(N2Cc3cnc(Nc4ccc(N5CCN(C)CC5)cc4)nc3N(C)C2=O)c2cccc(OC)c21 (single isomer, unassigned) [Compound 123] | 62.9 nM | ≥ 2500 nM | > 100 nM | ≥ 2500 nM
C=CC(=O)N1CCC12CC(N1Cc3cnc(Nc4ccc(N5CCN(C)CC5)cc4)nc3N(C)C1=O)C2 (stereo not drawn) [Compound 142, 1-methyl-7-[4-(4-methylpiperazin-1-yl)anilino]-S-(1-prop-2-enoyl-1-azaspiro[3.3]heptan-6-yl)-4H-pyrimido[4,5-d]pyrimidin-2-one] | > 1000 nM | ≥ 2500 nM | > 1000 nM | 500 to 2500 nM
C=C(F)C(=O)N1CCC(N2Cc3cnc(Nc4cnn(CCO)c4)nc3-n3ccnc32)c2ccccc21 (stereo not shown) [001A] | > 100 nM | ≥ 2500 nM | > 100 nM | ≥ 2500 nM
C=CC(=O)N1CC[C@H](N2Cc3cnc(Nc4ccc(N5CCN(C)CC5)cc4)nc3N(C)C2=O)c2cccc(C)c21 [Compound 140, 1-methyl-7-[4-(4-methylpiperazin-1-yl)anilino]-S-[(4S)-8-methyl-1-prop-2-enoyl-3,4-dihydro-2H-quinolin-4-yl]-4H-pyrimido[4,5-d]pyrimidin-2-one] | 0.97 nM | < 100 nM | > 1000 nM | < 100 nM
C=CC(=O)N1CC[C@H](N2Cc3cnc(Nc4ccc(N5CCN(C)CC5)cc4)nc3N(CCO)C2=O)c2cccc(C)c21 [Compound 153, 1-(2-hydroxyethyl)-7-[4-(4-methylpiperazin-1-yl)anilino]-S-[(4S)-8-methyl-1-prop-2-enoyl-3,4-dihydro-2H-quinolin-4-yl]-4H-pyrimido[4,5-d]pyrimidin-2-one] | 0.88 nM | < 100 nM | > 1000 nM | < 100 nM
C=CC(=O)N1CC[C@@H](N2Cc3cnc(Nc4ccc(N5CCN(C)CC5)cc4)nc3N(C)C2=O)c2cccc(C)c21 [Compound 141] | > 1000 nM | 100 to 500 nM | > 1000 nM | 100 to 500 nM
C=CC(=O)N1CCC(N2Cc3cnc(Nc4ccc(N5CCN(C)CC5)cc4)nc3N(C)C2=O)[C@@H](N)C1 (stereo in doubt) [Compound 149, rel-(3S,4S)—S-(3-amino-1-prop-2-enoyl-4-piperidyl)-1-methyl-7-[4-(4-methylpiperazin-1-yl)anilino]-4H-pyrimido[4,5-d]pyrimidin-2-one] | > 1000 nM | ≥ 2500 nM | > 1000 nM | ≥ 2500 nM
C=CC(=O)N1CCC(N2Cc3cnc(Nc4ccc(N5CCN(C)CC5)cc4)nc3N(C)C2=O)c2cccc(O)c21 (stereo not shown) [Compound 133] | 1.13 nM | < 100 nM | 10 nM | < 100 nM
C=CC(=O)N1CC[C@H](N2Cc3cnc(Nc4ccc(CS(=O)(=O)NC)cc4)nc3N(C)C2=O)c2cccc(C)c21 [Compound 145] | 1.77 nM | < 100 nM | > 1000 nM | < 100 nM
C=CC(=O)N1CC[C@H](N2Cc3cnc(Nc4ccc(N5CCN(C)CC5)cc4)nc3N(C3CCOC3)C2=O)c2cccc(C)c21 (stereo partly drawn) [Compound 151, 7-[4-(4-methylpiperazin-1-yl)anilino]-S-[(4S)-8-methyl-1-prop-2-enoyl-3,4-dihydro-2H-quinolin-4-yl]-1-tetrahydrofuran-S-yl-4H-pyrimido[4,5-d]pyrimidin-2-one] | 0.86 nM | < 100 nM | > 1000 nM | < 100 nM
